Assay [1] deals with other Rho GTPases and Ras. Put plainly: Example 7 effector pull-down in LDBM and HCB cells, other Rho GTPases and Ras. The assay is classed as cell-based, murine LDBM and human HCB cells. The method, then: To exclude the inhibitory effect of CASIN on other Rac isoforms, Rho GTPases, and Ras, broader effector pull-down experiments are performed on these possible candidates with gradient doses of CASIN in LDBM and HCB cells as previously described. In addition, CASIN has been indicated as a noncovalent and reversible inhibitor in Xenopus egg extract. To confirm it, reversibility is monitored in this set of effector pull-down experiments. Four treatment groups are divided for both LDBM and HCB cells: (1) Serum starvation 20 h; (2) Serum starvation 20 h+growth factors stimulation; (3) Serum starvation 20 h+CASIN treatment (doses: 1, 2.5, 5, and 10 μM) 3 h+growth factor stimulation; (4) Serum starvation 20 h+CASIN treatment (doses: 1, 2.5, 5, and 10 μM) 3 h+wash the cells, and culture for another 3 h for recovery+growth factors stimulation. […] Bound proteins are analyzed by immunoblotting with respective antibodies (BD Biosciences). Furthermore, changes of downstream targets of Cdc42, Rac, and Rho under the four treatment groups are assessed. Phosphorylation status of PAK1, WASP (effectors of Cdc42), WAVE (effector of Rac), and ROCK (effector of Rho) are monitored by western blots using respective antibodies.

A further assay addresses Cdc42 (Homo sapiens, UniProt P60953). Kind of assay: Rho GTPase effector pulldown in human CD34+ umbilical cord blood cells, Cdc42. The class given is cell-based. More on the design: endogenous in cells; host or cells: human CD34+ umbilical cord blood cells (HCB). The conditions noted are these: human CD34^+ HCBs. The method, then:
To begin to study potential utility of CASIN in human hematopoietic stem cell mobilization, a series of cellular assays were carried out to determine the effects on human CD34^+ umbilical cord blood cells (HCBs). […] The effects of CASIN on human hematopoietic cell mobilization was therefore tested using a well established preclinical in vivo model (NOD/SCID-Hcb) of human hematopoietic function, where fresh CD34^+ hCB cells were transplanted into sub-lethally irradiated NOD/SCIDs by intrafemoral injection, and repopulated and maintained human hematopoietic reconstitution in the bone marrow of NOD/SCID recipient mice (FIG. 9b, FIG. 11) (Larochelle, A. et al. Nat Med 2, 1329-1337 (1996); Bhatia, M., et al. Proc Natl Acad Sci USA 94, 5320-5325 (1997)). Intravenous injections of CASIN were applied when human cells were well engrafted in the NOD/SCID recipients.
To analyze the effects of CASIN on the formation of active GTP-bound Cdc42, RhoA, and Rac1, effector pulldown assays were carried out as described previously. Cdc42GAP^−/− MEF, LDBM, CD34^+ hCB cells were treated with CASIN at doses of 5-20 μM in parallel with vehicle control for 2 hrs after overnight starvation, and stimulated with cytokines subsequently. […]

Another assay deals with Swiss 3T3 fibroblasts. Kind of assay: actin cytoskeleton rearrangement in Swiss 3T3 fibroblasts. The assay is classed as cell-based, murine. The following applies: serum-starved Swiss 3T3 cells, in the presence of CASIN. An excerpt: To investigate the Cdc42-dependent cytoskeleton rearrangement, Swiss 3T3 fibroblasts were used since it was abundantly elaborated in Swiss 3T3 fibroblats that bradykinin induces actin filopodia formation through activating Cdc42, whereas PDGF activates Rac1 and induces Rac-mediated membrane lamellipoidia, and LPA responsible for RhoA activation, eliciting RhoA-medicated formation of actin stress fibers and focal adhesion assembly (Ridley, A. J. et al. Cell 70, 401-410 (1992); Ridley, A. J. et al. Cell 70, 389-399 (1992); Kozma, R. et al. Mol Cell Biol 15, 1942-1952 (1995)).
[…] cells were seeded in Dulbecco's modified Eagle's medium (DMEM) supplemented with 10% calf serum on glass coverslips at a density of 10^5 cells per well in 8-well chambers. 24 hrs after cell seeding, cells were starved in serum-free DMEM for 24 h in the presence or absence of 5 μM or 10 μM CASIN for the last 2 hrs. cells then were stimulated with 5 ng/ml PDGF, 40 ng/ml LPA, or 100 ng/ml bradykinin, then fixed for immunofluorescence analysis. Immunostaining of F-actin with Rhodamine conjugated-phalloidin (Invitrogen) was carried out as described previously (Shutes, A., et al. J Biol Chem 282, 35666-35678 (2007)).

The test system of assay [2] is primitive human hematopoietic cells (CD45+CD34+CD38−). Kind of assay: Example 7 mobilization of human HSC/Ps in NOD-SCID model. The class given is in vivo, NOD-SCID mice transplanted with CD34+ HCB cells. The following applies: flow cytometry. The source says:
The mobilization effects of CASIN on human HSC/Ps using an established preclinical in vivo mouse model are examined. […] This reconstituting population of human hematopoietic cells is operationally defined as SCID-repopulating cells (SRCs), and accordingly represents candidate human HSCs.
Primitive CD34+ human neonatal umbilical cord blood cells are transplanted into sublethally irradiated recipients. Around 10-week posttransplantation, human multilineage repopulating capacity of transplanted HSCs is examined using flow cytometry for surface markers representing human lymphoid (CD19, CD20), myeloid (CD15, CD33) and primitive (CD34, CD38) hematopoietic subsets. […] To further characterize the effect of CASIN on mobilization of primitive human HSC mobilization, progenitor potential is determined using functional clonogenic assays of hematopoietic colony-forming units (CFUs) derived from HPCs33. Numbers of CFUs are counted posinjection of CASIN treatment, in comparison with control medium and G-CSF administration.
On the technique in general: Flow cytometry measures light scatter and fluorescence of single cells or particles in a stream.

The values that follow come from patent US9433663B2, “Mobilization of hematopoietic stem cells” (Children's Hospital Medical Center, priority 2008, dated 2016).

Sequence of Cdc42 (P60953 whole entry): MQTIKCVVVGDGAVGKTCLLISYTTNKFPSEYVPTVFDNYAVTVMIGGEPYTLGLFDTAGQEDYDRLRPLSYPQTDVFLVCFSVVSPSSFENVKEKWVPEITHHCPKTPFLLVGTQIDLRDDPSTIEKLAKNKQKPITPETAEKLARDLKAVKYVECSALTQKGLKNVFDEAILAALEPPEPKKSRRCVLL

Turning to `OCCNC1CCCc2c1[nH]c1ccc(-c3ccccc3)cc21` (stereo not drawn) [CASIN], the “activities of other Rho GTPases and Ras” value in assay [1] is “without affecting”. For the same compound, the Cdc42 activity entry on Cdc42 is “specifically inhibit”. For the same compound, in the assay with Swiss 3T3 fibroblasts, the “LPA-induced actin stress fiber formation” value was “still induced their respective changes in actin reorganization”, the PDGF-induced lamellipodia formation result is given as “still induced their respective changes in actin reorganization” and the bradykinin-induced filopodia formation result is “suppressed completely”. Also, the “frequency and total number of primitive human hematopoietic cells (CD45+CD34+CD38−) in peripheral blood” value in assay [2] is “increases significantly”.
